Reference: patent US7132554B2, “Therapeutic synergy of anti-cancer compounds” (Bristol-Myers Squibb Company, priority 2004, dated 2006)

Legend:
[1] = tested on: Human L2987 lung carcinoma xenografts; test: Antitumor testing versus s.c. L2987 lung carcinoma xenografts in nude mice; type: in vivo; details: for T-C: tumor target 1.0 g
Protocol: (§1) Compounds. The oral taxane (Ia) was synthesized by Bristol-Myers Squibb (BMS) chemists. The compound was dissolved initially in equal portions of Cremophor EL and ethanol, followed by aqueous dilution to yield final ethanol and Cremophor EL concentrations of 10%.
(§2) Animals. Athymic (“nude”) mice, 5–6 weeks of age, purchased from Harlan Sprague Dawley (Indianapolis, Ind.), were quarantined for ˜2 weeks before their use for tumor propagation and drug efficacy testing. They were fed food and water ad libitum. All studies involving these animals were conducted in accordance with NIH (Bethesda, Md.) and Bristol Myers-Squibb animal care and use guidelines.
(§3) Tumors. Human L2987 lung and GEO colon carcinomas were maintained in nude mice by serial s.c. passage. All efficacy testing involved tumors implanted s.c. in nude mice.
(§4) Antitumor Testing. A detailed description of the methods used to assess antitumor effects has been provided previously in Rose, W. C., Fairchild, C., and Lee, F. Y. F. Preclinical antitumor activity of two novel taxanes. Cancer Chemother. Pharmacol. 47: 97–105, 2001. […] Delays in tumor growth are also converted to log cell kill (LCK) values by methods described in the same article. Statistical evaluations of data were performed using Gehan's generalized Wilcoxon test for comparisons of time to reach tumor target size. Statistical significance was declared at P<0.05. Group sizes typically consisted of eight mice. Activity was defined as ≧1 LCK.
(§5) Definitions of MTD and OD have been published previously in the above-noted article. Therapeutic results were reported at the OD, i.e., that yielding the best effect without exceeding the MTD. Therapeutic synergy represents a therapeutic effect achieved with a tolerated regimen of a combination treatment that exceeds the optimal effect achieved at any tolerated dose of monotherapy associated with the same drugs used in the combination. Cured mice are defined as those whose tumors are ≦35 mg when assessed 10 tumor volume doubling times (based on control tumor growth between 500 mg and 1 g) post-termination of treatment. A regimen was described as “toxic” if more than one mouse died during or within 10 days following the final drug treatment, or anytime after the initiation of drug therapy whose tumor size at the time of death was below 1 g.

[2] = Tolerability (body weight change, deaths, MTD) in nude mice bearing GEO tumors; type: in vivo
Protocol: as §1, §2, §5

[3] = Tolerability (body weight change, deaths, MTD) in nude mice bearing L2987 tumors; type: in vivo
Protocol: as §1, §2, §5

[4] = Phase I clinical trial, weekly schedule of administration; type: in vivo, human
Text: The preclinical activity of Compound Ia was observed using several different schedules, with an intermittent administration regimen being optimal in one carefully examined tumor model. […] Heavily pretreated patients, typically having received two or three prior chemo/radiotherapies, have responded to weekly Compound Ia. All but one of the several responding patients had NSCLC, and all but one of these had previously received either a parenteral taxane or a small molecule anti-EGFR compound, gefitinib, or both. The purpose of our current investigations was to evaluate this oral taxane versus preclinical human tumor models using a multiple administration treatment regimen, in combination with an inhibitor of EGFR.

[5] = tested on: Human GEO colon carcinoma xenografts; test: Antitumor testing versus s.c. GEO colon carcinoma xenografts in nude mice; type: in vivo; set-up: key: Treatment resulting in more than one death is described as “TOX” (i.e., toxic); details: q3dx6 from Day 11
Protocol: as §1, §2, §3, §4, §5

[6] = tested on: Human GEO colon carcinoma xenografts; details: known from earlier work; cited from earlier work
[7] = confirmatory study, q3dx6 from Day 20, Compound Ia 40 mg/kg/adm p.o.
[8] = confirmatory study, q3dx6 from Day 20, Compound Ia 60 mg/kg/adm p.o.
[9] = pilot study, q3dx4 from Day 22, Compound Ia 40 mg/kg/adm p.o.
[10] = pilot study, q3dx4 from Day 22, Compound Ia 60 mg/kg/adm p.o.

COC(=O)OC12COC1CC(O)C1(C)C(=O)C(OC(C)=O)C3=C(C)C(OC(=O)C(O)C(NC(=O)OC(C)(C)C)C(C)(C)C)CC(O)(C(OC(=O)c4ccccc4)C21)C3(C)C (centres unmarked) [Compound Ia]
LCK (log cell kill) [1, 7]: 0.5 | T-C [1, 7]: 14.5 days | LCK (log cell kill) [1, 8]: 1.0 | T-C [1, 8]: 28.0 days | LCK (log cell kill) [1, 9]: 0.2 | T-C [1, 9]: 5.5 days | LCK (log cell kill) [1, 10]: 0.6 | T-C [1, 10]: 14.0 days | MTD ([2]; p.o., q3dx6): 60 mg/kg/adm | Average body weight change ([2]; q3dx6 from Day 11, Compound Ia 40 mg/kg/adm p.o.): -2.6 g | Average body weight change ([2]; q3dx6 from Day 11, Compound Ia 60 mg/kg/adm p.o.): -1.8 g | dead/total ([2]; q3dx6 from Day 11, Compound Ia 90 mg/kg/adm p.o.): (3/8) | Average body weight change [3, 7]: 1.5 g | Average body weight change [3, 8]: -0.9 g | MTD, cumulative exposure ([3]; confirmatory study, 60 mg/kg/adm p.o. q3dx6, tolerated with minimal body weight loss): 360 mg/kg | historical MTD, cumulative exposure ([3]; p.o., established using a schedule similar to q3dx4): approximately 300 mg/kg | Average body weight change [3, 9]: 0.7 g | Average body weight change [3, 10]: 1.0 g | Clinical toxicity [4]: manageable toxicity | LCK (log cell kill) ([5]; Compound Ia 40 mg/kg/adm p.o.): 0.3 | T-C ([5]; Compound Ia 40 mg/kg/adm p.o., tumor target 1.0 g): 4.0 days | LCK (log cell kill) ([5]; Compound Ia 60 mg/kg/adm p.o.): 0.7 | T-C ([5]; Compound Ia 60 mg/kg/adm p.o., tumor target 1.0 g): 10.0 days | LCK (log cell kill) ([5]; Compound Ia 90 mg/kg/adm p.o.): TOX | T-C ([5]; Compound Ia 90 mg/kg/adm p.o.): TOX

COc1cc2ncnc(Nc3ccc(F)c(Cl)c3)c2cc1OCCCN1CCOCC1 [gefitinib]
Responsiveness of the GEO tumor model [6]: responsive
